Laboratory results reported in ChEMBL document CHEMBL5356993, “Novel pyrazolo[3,4-d]pyrimidine derivatives: design, synthesis, anticancer evaluation, VEGFR-2 inhibition, and antiangiogenic activity” (RSC Med Chem, 2023).

Columns and labels:
[1] = tested on: HUVEC; test: Antiangiogenic activity against HUVEC cells assessed as decrease in healing rate at IC50 incubated for 72 hrs by wound healing assay relative to control; format: functional, Homo sapiens; parameters: scale not given: the % may be the effect or the level left
[2] = tested on: HUVEC; test: Antiangiogenic activity against HUVEC cells assessed as wound closure at IC50 incubated for 72 hrs by wound healing assay (reference value: 98.518 %); format: functional, Homo sapiens
[3] = tested on: MDA-MB-468; test: Induction of apoptosis in human MDA-MB-468 cells assessed as increase in caspase-3 level incubated for 2 hrs by ELISA (reference value: 2.109 ng/ml); format: functional

**Q.** How did the Activity [1] turn out when `CCN(CC)CCNC(=O)c1c(C)[nH]c(/C=C2\C(=O)Nc3ccc(F)cc32)c1C` [SUNITINIB] was run?
**A.** Its Activity is 41%.

**Q.** What about the Activity [2] of the same molecule?
**A.** Its Activity is 57.777%.

**Q.** What about the Activity [3] of the same molecule?
**A.** Its Activity is 21.83 ng/mL.
